{"source": "patent US6867192B1", "about": "“Compounds useful in the treatment of inflammatory diseases” (priority 1998, dated 2005)", "key": {"[1]": {"test_system": "ovalbumin sensitised guinea pigs", "assay": "Inhibition of eosinophil infiltration and hyper-reactivity in the guinea pig", "type": "in vivo", "settings": "dose 200 μg/kg body weight i.t., positive control", "procedure": "(3) Inhibition of Eosinophil Infiltration and Hyper-Reactivity in the Guinea Pig\nIn a method based on that described by Danahay et al., 1997, ovalbumin sensitised guinea pigs were dosed with mepyramine (30 mg kg^−1 ip) to protect against anaphylactic bronchospasm. Test compounds, dissolved in 0.9% saline, were given by the inhaled route (30 minutes breathing of an aerosol of the compound) or the intra-tracheal route, 30 minutes before and 6 hours after ovalbumin challenge (10 minutes breathing of an aerosol generated from a 0.5% solution of ovalbumin). Hyper-reactivity of the airways to the thromboxane mimetic U46619, was measured 24 hours after ovalbumin challenge in un-restrained animals using a whole body plethysmograph (Buxco Ltd., USA). The guinea pigs were then sacrificed and the lungs lavaged. Total and differential leukocyte counts were then obtained for the bronchoalveolar lavage fluid and the percentage reduction in eosinophil accumulation determined (Sanjar et al., 1992). Dexamethasone (200 μg kg^−1 i.t) was used as a positive control. Data was presented as the inhibitory effect of the specified dose expressed as a percentage of the vehicle control response."}, "Solubility in water": {"assay": "Solubility in water", "type": "physicochemical"}, "[2]": {"target": "T1, integrin VLA-4, expressed on the Jurkat J6 (human lymphoblast cell line) cell membrane with VCAM-1 (Homo sapiens, UniProt P05556+P13612)", "T1 construct": "integrin VLA-4, expressed on the Jurkat J6 (human lymphoblast cell line) cell membrane; endogenous in cells; host or cells: Jurkat J6 cells (integrin). zzVCAM-1 was made in house in Drosophila melanogaster S2 cells", "T1 sequence (P13612 34-1032)": "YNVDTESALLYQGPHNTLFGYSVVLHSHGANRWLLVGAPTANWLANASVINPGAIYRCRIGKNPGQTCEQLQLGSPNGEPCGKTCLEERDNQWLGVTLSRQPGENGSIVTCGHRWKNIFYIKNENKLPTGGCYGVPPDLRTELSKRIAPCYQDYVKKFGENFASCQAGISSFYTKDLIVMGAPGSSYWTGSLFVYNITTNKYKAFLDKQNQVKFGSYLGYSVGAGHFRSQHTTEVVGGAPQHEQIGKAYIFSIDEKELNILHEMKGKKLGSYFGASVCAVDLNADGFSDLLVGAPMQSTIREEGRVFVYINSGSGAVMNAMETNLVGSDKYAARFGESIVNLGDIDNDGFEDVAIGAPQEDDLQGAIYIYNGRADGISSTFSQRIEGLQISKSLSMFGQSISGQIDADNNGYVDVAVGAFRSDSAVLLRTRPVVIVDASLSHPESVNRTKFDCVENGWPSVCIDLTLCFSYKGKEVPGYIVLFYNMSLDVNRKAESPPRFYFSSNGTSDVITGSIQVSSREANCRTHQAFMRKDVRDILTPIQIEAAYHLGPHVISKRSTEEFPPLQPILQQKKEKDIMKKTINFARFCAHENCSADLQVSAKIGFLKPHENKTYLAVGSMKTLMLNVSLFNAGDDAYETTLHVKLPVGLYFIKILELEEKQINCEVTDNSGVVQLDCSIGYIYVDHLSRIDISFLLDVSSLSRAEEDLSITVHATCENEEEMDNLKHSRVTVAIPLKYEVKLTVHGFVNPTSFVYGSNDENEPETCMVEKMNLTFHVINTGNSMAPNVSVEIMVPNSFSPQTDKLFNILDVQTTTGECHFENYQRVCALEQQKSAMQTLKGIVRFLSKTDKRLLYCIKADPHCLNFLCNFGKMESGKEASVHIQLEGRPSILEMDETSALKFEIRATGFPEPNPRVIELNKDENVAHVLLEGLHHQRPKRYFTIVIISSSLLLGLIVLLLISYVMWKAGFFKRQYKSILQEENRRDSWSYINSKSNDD", "T1 sequence (P05556 21-798)": "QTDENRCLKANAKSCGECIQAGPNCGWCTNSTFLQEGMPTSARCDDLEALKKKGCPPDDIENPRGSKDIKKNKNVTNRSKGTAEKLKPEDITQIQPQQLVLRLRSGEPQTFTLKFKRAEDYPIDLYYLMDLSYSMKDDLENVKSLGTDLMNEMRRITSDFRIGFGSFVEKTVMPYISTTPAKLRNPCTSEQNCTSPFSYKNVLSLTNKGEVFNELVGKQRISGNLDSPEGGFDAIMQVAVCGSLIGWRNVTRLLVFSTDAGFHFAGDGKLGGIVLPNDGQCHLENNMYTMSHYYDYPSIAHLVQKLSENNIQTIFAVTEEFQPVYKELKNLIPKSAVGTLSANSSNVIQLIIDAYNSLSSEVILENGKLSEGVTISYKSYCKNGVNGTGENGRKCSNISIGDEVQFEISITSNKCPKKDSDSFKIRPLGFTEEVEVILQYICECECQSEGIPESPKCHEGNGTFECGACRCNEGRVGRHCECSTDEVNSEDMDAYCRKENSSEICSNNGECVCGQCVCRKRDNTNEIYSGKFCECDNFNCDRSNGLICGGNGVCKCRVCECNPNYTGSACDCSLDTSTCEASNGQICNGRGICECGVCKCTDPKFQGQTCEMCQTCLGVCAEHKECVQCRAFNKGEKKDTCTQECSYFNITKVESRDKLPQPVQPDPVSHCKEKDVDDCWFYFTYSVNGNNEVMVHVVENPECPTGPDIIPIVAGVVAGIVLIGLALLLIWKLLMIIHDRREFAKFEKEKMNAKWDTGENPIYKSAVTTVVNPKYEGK", "assay": "Jurkat J6/VCAM-1 adhesion assay", "type": "cell-based", "settings": "Jurkat J6 cell adhesion to VCAM-1, 1 mM MnCl2; mean of n experiments", "procedure": "(1) Jurkat J6/VCAM-1 Adhesion Assay\nThis assay was used to investigate the interaction of the integrin VLA-4, expressed on the Jurkat J6 (human lymphoblast cell line) cell membrane with VCAM-1. Polystyrene 96-well microtitre plates were coated with human immunoglobulin G (IgG; Sigma Chemicals, UK, Product No. 14506) at a concentration of 0.05 mg ml^−1 in bicarbonate buffer (36 mM NaHCO3 and 22 mM Na2CO3, prepared in Dulbecco's phosphate buffered saline at pH 9.8 (PBS); Sigma Chemicals, UK, Product No. 14190-094) for 2 hours at 37° C. This solution was then aspirated and the plates were washed twice with PBS.\nVCAM-1 was prepared by cloning its constituent seven domains into a Drosophila expression system with a zz (Protein A) tag. This zzVCAM-1 was then expressed from Drosophila melanogaster S2 cell culture, induced with copper. Protease inhibitors were added and the culture supernatant was clarified either by filtration through a 0.2 μm filter or by centrifugation. The zzVCAM-1 was then purified from this clarified medium using an IgG agarose column, equilibrated with either 20 mM sodium phosphate pH 7.2 alone or in the presence of 0.5M sodium chloride. Elution of zzVCAM-1 from the column was mediated using 3M ammonium thiocyanate, which was subsequently removed using a G25 desalting column, equilibrated with 20 mM sodium phosphate, pH 7.2. The purified zzVCAM-1 was then concentrated to a small volume (Amicon stirred cell concentrators) until a concentration of 62.5 ng ml^−1 was obtained, calculated using the extinction coefficient value.\nThis solution of zzVCAM-1 was then incubated overnight at 4° C. in the IgG coated microtitre plates with 3% bovine serum albumin (BSA) in PBS, followed by aspiration and two further washes with PBS. A concentration of the Jurkat J6 cells (6×10^6 cels ml^−1), grown in cell media RPMI 1640 (HyClone Ltd, Product No. B-9106-L) supplemented with 10% heat inactivated fetal calf serum (FCS; Gibco BRL, Product No. 10099-075) and 2 mM L-glutamine, were labelled with 10 μM of the fluorescent dye, 2′, 7′-bis(2-carboxyethyl)-5-(e6)-carboxyfluorescein acetoxymethyl ester (BCECF-AM; Molecular Probes Inc, Product No. B-1150) at 37° C. for 10 minutes. The excess dye was then removed by centrifugation at 500×g for 5 minutes and the cells were resuspended at a concentration of 1.2×10^7 cells ml^−1 in Hank's balanced salt solution (HBSS; Gibco BRL, Product No. 14190-094).\nEqual volumes of compounds (dissolved in an appropriate solvent and diluted in HBSS containing 1 mM MnCl2) and the labelled Jurkat J6 cells, were added to the VCAM-1 coated plates and adhesion was allowed to proceed for 30 minutes at 37° C. Non, or loosely adhered cells, were removed by inversion of the plate and blotted with tissue paper. Two washes with PBS and further blotting were then performed, before the addition of 2% detergent (Triton-X®; Sigma Chemicals UK, Product No. X100). Counting was undertaken in a Wallac Viktor™ Fluorimeter, where low fluorescence values were indicative of compounds which had inhibited adhesion. All samples were assayed in singlicate and the following four parameter curve fit, shown by Equation (I) was applied: [formula]\nWhere a is the minimum, b is the Hill slope, c is the IC50 and d is the maximum. (Maximum and minimum values are those compared to adhesion in the absence of compound and in the presence of the dipotassium salt of 2 mM EDTA; Sigma Chemicals, UK, Product No. ED2P). Data is presented as the mean pIC50 with the standard error of the mean of n experiments."}}}
{"smiles": "C[C@@H]1C[C@H]2[C@@H]3CCC4=CC(=O)C=C[C@]4(C)[C@@]3(F)[C@@H](O)C[C@]2(C)[C@@]1(O)C(=O)CO", "note": "[Dexamethasone, reference compound]", "values": [{"measurement": "inhibition in vivo at 0.2 mg/kg", "setting": "[1]; Cavia porcellus, Eosinophil, inhaled or nasal, 24 h, airway hyper-reactivity to U46619", "result": 80, "unit": "%"}, {"measurement": "% Inhibition Eosinophil Accumulation", "setting": "[1]", "result": 55, "unit": "%"}]}
{"smiles": "Cc1ccccc1OCC(=O)N[C@@H](CC(C)C)C(=O)N[C@@H](Cc1ccc(OC(=O)N2CCC(C(N)=O)CC2)cc1)C(=O)[O-].[K+]", "note": "[Example 27A, (2S)-3-[4-({[4-(Aminocarbonyl)-1-piperidinyl]carbonyl}oxy)phenyl]-2-[((2S)-4-methyl-2-{[2-(2-methylphenoxy)acetyl]amino}pentanoyl)amino]propanoic acid potassium salt]", "values": [{"measurement": "solubility", "setting": "Solubility in water", "result": "> 250", "unit": "mg/mL"}]}
{"smiles": "CC(C)C[C@H](NC(=O)COc1ccccc1C1CCCCC1)C(=O)N[C@@H](Cc1ccc(OC(=O)N2CCC(NC(=O)Cc3ccc(Cl)cc3)CC2)cc1)C(=O)O", "note": "[Example 45, (2S)-3-(4-{[(4-{[2-(4-Chlorophenyl)acetyl]amino}-1-piperidinyl)carbonyl]oxy}phenyl)-2-[((2S)-2-{[2-(2-cyclohexylphenoxy)acetyl]amino}-4-methylpentanoyl)amino]propanoic acid]", "values": [{"measurement": "IC50", "setting": "[2]", "result": 57.5, "unit": "nM"}]}
{"smiles": "CC(C)C[C@H](NC(=O)COc1ccccc1C(=O)c1ccccc1)C(=O)N[C@@H](Cc1ccc(OC(=O)N2CCC(NC(=O)Cc3ccc(Cl)cc3)CC2)cc1)C(=O)O", "note": "[Example 46, (2S)-2-[((2S)-2-{[2-(2-Benzoylphenoxy)acetyl]amino}-4-methylpentanoyl)amino]-3-(4-{[(4-{[2-(4-chlorophenyl)acetyl]amino}-1-piperidinyl)carbonyl]oxy}phenyl)propanoic acid]", "values": [{"measurement": "IC50", "setting": "[2]", "result": 43.7, "unit": "nM"}]}
{"smiles": "CC(C)C[C@H](NC(=O)COc1ccccc1I)C(=O)N[C@@H](Cc1ccc(OC(=O)N2CCC(NC(=O)Cc3ccc(Cl)cc3)CC2)cc1)C(=O)O", "note": "[Example 47, (2S)-3-(4-{[(4-{[2-(4-Chlorophenyl)acetyl]amino}-1-piperidinyl)carbonyl]oxy}phenyl)-2-[((2S)-2-{[2-(2-iodophenoxy)acetyl]amino}-4-methylpentanoyl)amino]propanoic acid]", "values": [{"measurement": "IC50", "setting": "[2]", "result": 33.1, "unit": "nM"}]}
{"smiles": "CC(C)C[C@H](NC(=O)COc1ccccc1C(C)(C)C)C(=O)N[C@@H](Cc1ccc(OC(=O)N2CCC(NC(=O)Cc3ccc(Cl)cc3)CC2)cc1)C(=O)O", "note": "[Example 48, (2S)-2-{[(2S)-2-({2-[2-(Tert-butyl)phenoxy]acetyl}amino)-4-methylpentanoyl]amino}-3-(4-{[(4-{[2-(4-chlorophenyl)acetyl]amino}-1-piperidinyl)carbonyl]oxy}phenyl)propanoic acid]", "values": [{"measurement": "IC50", "setting": "[2]", "result": 41.7, "unit": "nM"}]}
{"smiles": "CC(C)C[C@H](NC(=O)c1cccc2c1oc1ccccc12)C(=O)N[C@@H](Cc1ccc(OC(=O)N2CCC(NC(=O)Cc3ccc(Cl)cc3)CC2)cc1)C(=O)O", "note": "[Example 49, (2S)-3-(4-{[(4-{[2-(4-Chlorophenyl)acetyl]amino}-1-piperidinyl)carbonyl]oxy}phenyl)-2-({(2S)-2-[(dibenzo[b,d]furan-4-ylcarbonyl)amino]-4-methylpentanoyl}amino)propanoic acid]", "values": [{"measurement": "IC50", "setting": "[2]", "result": 44.7, "unit": "nM"}]}
{"smiles": "CC(C)C[C@H](NC(=O)COc1cc2ccccc2cc1C(=O)N1CCCCC1)C(=O)N[C@@H](Cc1ccc(OC(=O)N2CCC(NC(=O)Cc3ccc(Cl)cc3)CC2)cc1)C(=O)O", "note": "[Example 50, (2S)-3-(4-{[(4-{[2-(4-Chlorophenyl)acetyl]amino}-1-piperidinyl)carbonyl]oxy}phenyl)-2-({(2S)-4-methyl-2-[(2-{[3-(1-piperidinylcarbonyl)-2-naphthyl]oxy}acetyl)amino]pentanoyl}amino)propanoic acid]", "values": [{"measurement": "IC50", "setting": "[2]", "result": 25.1, "unit": "nM"}]}
{"smiles": "CC(C)C[C@H](NC(=O)COc1ccccc1C(C)(C)C)C(=O)N[C@@H](Cc1ccc(OC(=O)N2CCC(NC(=O)Cc3ccccc3)CC2)cc1)C(=O)O", "note": "[Example 51, (2S)-2-{[(2S)-2-({2-[2-(Tert-butyl)phenoxy]acetyl}amino)-4-methylpentanoyl]amino}-3-{4-[({4-[(2-phenylacetyl)amino]-1-piperidinyl}carbonyl)oxy]phenyl}propanoic acid]", "values": [{"measurement": "IC50", "setting": "[2]", "result": 13.8, "unit": "nM"}]}
{"smiles": "CC(C)C[C@H](NC(=O)COc1ccccc1C(C)(C)C)C(=O)N[C@@H](Cc1ccc(OC(=O)N2CCC(NC(=O)CC3CCCCC3)CC2)cc1)C(=O)O", "note": "[Example 52, (2S)-2-{[(2S)-2-({2-[2-(Tert-butyl)phenoxy]acetyl}amino)-4-methylpentanoyl]amino}-3-{4-[({4-[(2-cyclohexylacetyl)amino]-1-piperidinyl}carbonyl)oxy]phenyl}propanoic acid]", "values": [{"measurement": "IC50", "setting": "[2]", "result": 33.1, "unit": "nM"}]}
{"smiles": "CC(C)C[C@H](NC(=O)COc1ccccc1C(C)(C)C)C(=O)N[C@@H](Cc1ccc(OC(=O)N2CCC(NC(=O)C(C3CCCCC3)C3CCCCC3)CC2)cc1)C(=O)O", "note": "[Example 53, (2S)-2-{[(2S)-2-({2-[2-(Tert-butyl)phenoxy]acetyl}amino)-4-methylpentanoyl]amino}-3-{4-[({4-[(2,2-dicyclohexylacetyl)amino]-1-piperidinyl}carbonyl)oxy]phenyl}propanoic acid]", "values": [{"measurement": "IC50", "setting": "[2]", "result": 155, "unit": "nM"}]}
{"smiles": "Cc1ccccc1OCC(=O)N[C@@H](CC(C)C)C(=O)N[C@@H](Cc1ccc(OC(=O)N2CCC(NC(=O)Cc3ccccc3)CC2)cc1)C(=O)O", "note": "[Example 54, (2S)-2-[((2S)-4-Methyl-2-{[2-(2-methylphenoxy)acetyl]amino}pentanoyl)amino]-3-{4-[({4-[(2-phenylacetyl)amino]-1-piperidinyl}carbonyl)oxy]phenyl}propanoic acid]", "values": [{"measurement": "IC50", "setting": "[2]", "result": 5.62, "unit": "nM"}]}
{"smiles": "CC(C)C[C@H](NC(=O)COc1ccccc1C1CCCCC1)C(=O)N[C@@H](Cc1ccc(OC(=O)N2CCC(NC(=O)Cc3ccccc3)CC2)cc1)C(=O)O", "note": "[Example 55, (2S)-2-[((2S)-2-{[2-(2-Cyclohexylphenoxy)acetyl]amino}-4-methylpentanoyl)amino]-3-{4-[({4-[(2-phenylacetyl)amino]-1-piperidinyl}carbonyl)oxy]phenyl}propanoic acid]", "values": [{"measurement": "IC50", "setting": "[2]", "result": 61.7, "unit": "nM"}]}
{"smiles": "CC(C)C[C@H](NC(=O)COc1ccccc1C1CCCCC1)C(=O)N[C@@H](Cc1ccc(OC(=O)N2CCC(NC(=O)CC3CCCCC3)CC2)cc1)C(=O)O", "note": "[Example 56, (2S)-3-{4-[({4-[(2-Cyclohexylacetyl)amino]-1-piperidinyl}carbonyl)oxy]phenyl}-2-[((2S)-2-{[2-(2-cyclohexylphenoxy)acetyl]amino}-4-methylpentanoyl)amino]propanoic acid]", "values": [{"measurement": "IC50", "setting": "[2]", "result": 87.1, "unit": "nM"}]}
